Measured values reported in publication PMC9574860, “Chemical Toolkit for PARK7: Potent, Selective, and High-Throughput” (Journal of Medicinal Chemistry, 2022).

Assays:
UCHL1 = biological target: T1, UCHL1 (Homo sapiens, UniProt P09936); test: Gel-based competition assay with probe 8RK59, UCHL1 band; format: biochemical
T1 sequence (P09936 1-223): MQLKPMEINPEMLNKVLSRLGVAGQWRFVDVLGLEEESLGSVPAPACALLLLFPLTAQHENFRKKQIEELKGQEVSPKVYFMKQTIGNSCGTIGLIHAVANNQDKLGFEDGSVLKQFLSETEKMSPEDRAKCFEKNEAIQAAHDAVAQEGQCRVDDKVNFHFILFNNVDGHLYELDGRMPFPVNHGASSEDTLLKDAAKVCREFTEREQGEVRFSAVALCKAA

PARK7 [1] = biological target: T2, PARK7 (Homo sapiens, UniProt Q99497); test: Gel-based competition assay with probe 8RK59, PARK7 band; format: biochemical; parameters: GST (N, cleaved yes); made in house; host or cells: E. coli BL21(DE3) Rosetta2
T2 sequence (Q99497 1-189): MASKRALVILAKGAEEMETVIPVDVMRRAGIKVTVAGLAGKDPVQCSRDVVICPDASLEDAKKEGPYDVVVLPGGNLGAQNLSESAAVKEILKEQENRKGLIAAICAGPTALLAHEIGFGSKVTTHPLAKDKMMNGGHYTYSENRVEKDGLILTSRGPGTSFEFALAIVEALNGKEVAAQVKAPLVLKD
Description: To assess the inhibitory potency and selectivity of these compounds toward PARK7 and UCHL1, we performed a gel-based competition assay (Figure 3A).[36] A mixture of equal amounts of PARK7 and UCHL1 (1 μM) was treated with each of the synthesized compounds (2 μM) for 1 h, followed by incubation with fluorescent probe 8RK59 (2 μM) for 30 min. Samples were resolved by SDS-PAGE, and the gel was scanned for fluorescence. Inhibition of PARK7 or UCHL1 is reflected by the disappearance of their corresponding bands (Figure 3B). […] The inhibition potential of JYQ-88 against PARK7 was assessed in a similar assay where PARK7 was incubated with a serial dilution of JYQ-88 before treatment with probe 8RK59 (Figure 3C). A clear inhibition is visible at 0.5 μM, and full inhibition is achieved between 1 and 2 μM. […] The selectivity of JYQ-88 between UCHL1 and PARK7 was further confirmed in a direct competition assay between equal amounts of PARK7 and UCHL1 (Figure 3F). PARK7 inhibition was observed starting from 0.5 μM JYQ-88, whereas inhibition of UCHL1 was only detected at 20 μM. Since JYQ-88 and 8RK64 are enantiomers, we assumed that the interactions with PARK7 should be similar. To investigate how the chiral center influences the selectivity, we solved the crystal structure of the PARK7−JYQ-88 complex with 1.42 Å resolution (Figure 3G, Table S1, PDB 7PA3). The global positioning of the inhibitor in between the two α-helices was similar to that for 8RK64. […] This way, the thiazolo-pyridine part of JYQ-88 is bound in a similar manner as 8RK64 and the earlier observed interactions are largely the same. The formation of the isothiourea moiety, stabilized by the interaction with Glu18, and the interaction between the thiazole amine and the amide NH2 of the Asn76 side chain are still present. However, the interaction between the azidoacetyl carbonyl with the Leu128 backbone carbonyl can no longer be observed due to the rotation of the azidoacetyl moiety. The Lys132 residue also seems to have rotated (compared to Figure 2C).
The assay was performed in Tris buffer as described above.

PARK7 [2] = biological target: T2, PARK7; test: DiFMUAc PARK7 activity assay; format: biochemical; parameters: GST (N, cleaved yes); made in house; host or cells: E. coli BL21(DE3) Rosetta2
PARK7 [3] = biological target: T2, PARK7; test: FP assay with Rhodamine110 probe JYQ-107 (IC50 and hit validation); format: binding; parameters: GST (N, cleaved yes); made in house; host or cells: E. coli BL21(DE3) Rosetta2; conditions: PARK7 0.2 μM, 1 h preincubation, JYQ-107 20 nM
[4] = compound 2 μM, 1 h, PARK7 and UCHL1 1 μM each, then 8RK59 2 μM 30 min, Figure 3B
[5] = direct competition, equal amounts of PARK7 and UCHL1, Figure 3F

N#CN1CC[C@@H](C(=O)Nc2nc3c(s2)CN(C(=O)CN=[N+]=[N-])CC3)C1 [JYQ-88, (R)-N-(5-(2-Azidoacetyl)-4,5,6,7-tetrahydrothiazolo[5,4-c]pyridin-2-yl)-1-cyanopyrrolidine-3carboxamide]
Inhibition of UCHL1 (disappearance of 8RK59-labeled band) (UCHL1; [4]): without inhibiting
Concentration at which inhibition of UCHL1 was detected (UCHL1; [5]): 20 µM
Concentration at which clear inhibition of PARK7 is visible (PARK7 [1]; PARK7 1 μM, serial dilution of inhibitor, then 8RK59, Figure 3C): 0.5 µM
Inhibition of PARK7 (disappearance of 8RK59-labeled band) (PARK7 [1]; [4]): almost complete inhibition
Concentration from which PARK7 inhibition was observed (PARK7 [1]; [5]): 0.5 µM
Inhibitory potency toward PARK7 compared with 8RK64 (PARK7 [1]; gel-based PARK7 inhibition assays, Figures 3C and S2): slightly more potent
IC50 (PARK7 [2]; DiFMUAc assay, PARK7 0.1 μM, 1 h preincubation, DiFMUAc 300 μM): 130 nM
Fold higher potency toward PARK7 than UCHL1 (PARK7 [2]; PARK7 IC50 (DiFMUAc) vs UCHL1 IC50): 85 fold
IC50 (PARK7 [3]): 240 nM
